Measured values as given in patent US20180263909A1, “DUAL LOADED LIPOSOMAL NANOPARTICLES” (priority 2015, published 2018).

Assays:
[1] = tested on: NCI-H929 cells; conditions: 25 nM of each drug, 48 h
Method: (§1) Cytotoxicity and Synergy Analysis. 2×10^5 cells/well were plated in a 96-well dish 16 h prior to the experiment. Cells were treated with respective cytotoxic agents at varying concentrations. Cytotoxicity was assessed at 48 h using Cell Counting Kit-8 Reagent (Dojindo Molecular Technologies, Rockville, Mass.).

[2] = tested on: MM.1S cells; experiment: Cytotoxicity (Cell Counting Kit-8) and Chou-Talalay synergy analysis, MM.1S; format: cell-based; conditions: 25 nM of each drug, 48 h
Method: as §1

For `CC(C)C[C@H](NC(=O)[C@H](CCc1ccccc1)NC(=O)CN1CCOCC1)C(=O)N[C@@H](Cc1ccccc1)C(=O)N[C@@H](CC(C)C)C(=O)[C@@]1(C)CO1` [carfilzomib], the cytotoxicity [1] was “minimal cytotoxicity” and the cytotoxicity [2] was “minimal cytotoxicity”.
